{"source": "patent US6410564B1", "about": "“Naphthyl compounds, intermediates, processes, compositions, and methods” (Eli Lilly and Company, priority 1994, dated 2002)", "key": {"[1]": {"test_system": "ovariectomized (OVX) female Sprague Dawley rats", "test": "Osteoporosis Test Procedure: distal femur metaphysis X-ray image analysis, OVX rats, 35 days", "assay_type": "in vivo, rat", "conditions": "for Distal Femur Metaphysis (X-ray Image Analysis-Gray Score): mean ± SEM", "excerpt": "(§1) Seventy-five day old female Sprague Dawley rats (weight range of 200 to 225 g) were obtained from Charles River Laboratories (Portage, Mich.). The animals were either bilaterally ovariectomized (OVX) or exposed to a Sham surgical procedure at Charles River Laboratories, and then shipped after one week. Upon arrival, they were housed in metal hanging cages in groups of 3 or 4 per cage and had ad libitum access to food (calcium content approximately 0.5%) and water for one week. Room temperature was maintained at 22.2°±1.7° C. with a minimum relative humidity of 40%. The photoperiod in the room was 12 hours light and 12 hours dark.\nFollowing the General Preparation Procedure, infra, the rats were treated daily for 35 days (6 rats per treatment group) and sacrificed by carbon dioxide asphyxiation on the 36th day. The 35 day time period was sufficient to allow maximal reduction in bone density, measured as described herein. At the time of sacrifice, the uteri were removed, dissected free of extraneous tissue, and the fluid contents were expelled before determination of wet weight in order to confirm estrogen deficiency associated with complete ovariectomy. […] The uteri were then placed in 10% neutral buffered formalin to allow for subsequent histological analysis.\nThe right femurs were excised and digitilized x-rays generated and analyzed by an image analysis program (NIH image) at the distal metaphysis. The proximal aspect of the tibiae from these animals were also scanned by quantitative computed tomography.\nIn accordance with the above procedures, compounds of the present invention and ethynyl estradiol (EE2) in 20% hydroxypropyl β-cyclodextrin were orally administered to test animals. Distal femur metaphysis data presented in Tables 2 and 3 below are the results of formula I compound treatments compared to intact and ovariectomized test animals. Results are reported as the mean ± the standard error of the mean."}, "[2]": {"test_system": "Uterine Eosinophil Peroxidase (EPO)", "conditions": "rat, in vivo; for Uterine EPO (V. max): po", "excerpt": "as §1\n(§2) Dosing Regimen Tissue Collection. After a one week acclimation period (therefore, two weeks post-OVX) daily dosing with test compound was initiated. 17α-ethynyl estradiol or the test compound were given orally, unless otherwise stated, as a suspension in 1% carboxymethylcellulose or dissolved in 20% cyclodextrin. Animals were dosed daily for 4 days. Following the dosing regimen, animals were weighed and anesthetized with a ketamine: Xylazie (2:1, V:V) mixture and a blood sample was collected by cardiac puncture. The animals were then sacrificed by asphyxiation with CO2, the uterus was removed through a midline incision, and a wet uterine weight was determined.\nUterine Eosinophil Peroxidase (EPO) Assay. Uteri were kept at 4° C. until time of enzymatic analysis. The uteri were then homogenized in 50 volumes of 50 mM Tris Buffer (pH −8.0) containing 0.005% Triton X-100. Upon addition of 0.01% hydrogen peroxide and 10 mM O-phenylenediamine (final concentrations) in Tris buffer, increase in absorbance was monitored for one minute at 450 nm. The presence of eosonophils in the uterus is an indication of estrogenic activity of a compound. The maximal velocity of a 15 second interval was determined over the initial, linear portion of the reaction curve.\nAs is expressed in the below data, estrogenicity also was assessed by evaluating the adverse response to eosinophil infiltration into the uterus.\n(§3) The data presented in the Tables 1 below reflects the response of 5 to 6 rats per treatment."}, "[3]": {"test_system": "ovariectomized (OVX) female Sprague Dawley rats", "test": "Serum cholesterol in OVX rats, 4-day dosing", "assay_type": "in vivo, rat", "excerpt": "as §1, §2\nCholesterol Analysis. Blood samples were allowed to clot at room temperature for 2 hours, and serum was obtained following centrifugation for 10 minutes at 3000 rpm. Serum cholesterol was determined using a Boehringer Mannheim Diagnostics high performance cholesterol assay. Briefly the cholesterol was oxidized to cholest-4-en-3-one and hydrogen peroxide. The hydrogen peroxide was then reacted with phenol and 4-aminophenazone in the pressure of peroxidase to produce a p-quinone imine dye, which was read spectrophotemetrically at 500 nm. Cholesterol concentration was then calculated against a standard curve. The entire assay was automated using a Biomek Automated Workstation.\n(§4) Data presented in Table 1 below show comparative results among ovariectomized rats, rats treated with 17α-ethynyl estradiol (EE2; an orally available form of estrogen), and rats treated with certain compounds of the present invention. […] This uterine response to estrogen is well recognized in the art.\nas §3"}, "[4]": {"test_system": "MCF-7 breast adenocarcinoma cells", "test": "MCF-7 Proliferation Assay (tritiated thymidine)", "assay_type": "cell-based", "conditions": "MCF-7 cells, 48 hours with drug, tritiated thymidine pulse 4 hours", "description": "MCF-7 breast adenocarcinoma cells (ATCC HTB 22) were maintained in MEM (minimal essential medium, phenol red-free, Sigma, St. Louis, Mo.) supplimented with 10% fetal bovine serum (FBS) (V/V), L-glutamine ([…]), sodium pyruvate (1 mM), HEPES {(N-[2-hydroxyethyl]piperazine-N′-[2-ethanesulfonic acid]10 mM}, non-essential amino acids and bovine insulin (1 ug/mL) (maintenance medium). Ten days prior to assay, MCF-7 cells were switched to maintenance medium supplemented with 10% dextran coated charcoal stripped fetal bovine serum (DCC-FBS) assay medium) in place of 10% FBS to deplete internal stores of steroids. MCF-7 cells were removed from maintenance flasks using cell dissociation medium (Ca++/Mg++ free HBSS (phenol red-free) supplemented with 10 mM HEPES and 2 mM EDTA). Cells were washed twice with assay medium and adjusted to 80,000 cells/mL. Approximately 100 μL (8,000 cells) were added to flat-bottom microculture wells (Costar 3596) and incubated at 37° C. in a 5% CO2 humidified incubator for 48 hours to allow for cell adherence and equilibration after transfer. Serial dilutions of drugs or DMSO as a diluent control were prepared in assay medium and 50 μL transferred to triplicate microcultures followed by 50 μL assay medium for a final volume of 200 μL. After an additional 48 hours at 37° C. in a 5% CO2 humidified incubator, microcultures were pulsed with tritiated thymidine (1 uCi/well) for 4 hours. Cultures were terminated by freezing at −70° C. for 24 hours followed by thawing and harvesting of microcultures using a Skatron Semiautomatic Cell Harvester. Samples were counted by liquid scintillation using a Wallac BetaPlace β counter. Results in Table 4 below show the IC50 for certain compounds of the present invention."}, "[5]": {"test_system": "ovariectomized (OVX) female Sprague Dawley rats", "conditions": "rat, in vivo, po, 4 days", "description": "In the examples illustrating the methods, a post-menopausal model was used in which effects of different treatments upon circulating lipids were determined.\nas §1, §2, §4, §3"}, "[6]": {"conditions": "Table 2, oral daily 35 days in 20% cyclodextrin, 0.1 mg/kg, OVX control 5.5 ± 0.6, Sham 30.5 ± 4.3"}, "[7]": {"conditions": "oral daily for 4 days, dose 0.1 mg/kg"}, "[8]": {"conditions": "Homo sapiens, MCF7, read-out: IC50"}}, "note": "Where two headings read alike, the source gives them in different places.", "data": [{"compound": "C#C[C@]1(O)CC[C@H]2[C@@H]3CCc4cc(O)ccc4[C@H]3CC[C@@]21C", "note": "[EE2, 17α-ethynyl estradiol, reference compound]", "values": [{"measurement": "Distal Femur Metaphysis (X-ray Image Analysis-Gray Score)", "setting": "[1]; [6]", "result": "32.8 ± 7.9"}, {"measurement": "Distal Femur Metaphysis (X-ray Image Analysis-Gray Score)", "setting": "[1]; Table 3, oral daily 35 days in 20% cyclodextrin, 0.1 mg/kg, OVX control 7.2 ± 2.2, Sham 44.7 ± 6.4", "result": "44.4 ± 4.8"}, {"measurement": "bone loss / femur density after ovariectomy (in words)", "setting": "[1]; oral, 35 days", "result": "prevented this loss"}, {"measurement": "eosinophil infiltration into the uterus (number of eosinophils in the stromal layer, in words)", "setting": "[2]", "result": "substantial, expected increase in eosinophil infiltration"}, {"measurement": "Uterine EPO (V. max)", "setting": "[2]; 0.1 mg/kg", "result": 116.4}, {"measurement": "Serum Cholesterol (% decrease vs. OVX)", "setting": "[3]; [7]", "result": 81.4, "unit": "%"}, {"measurement": "serum cholesterol compared to ovariectomized control animals (in words)", "setting": "[3]; oral, 4 days, EE2 at 0.1 mg/kg/day", "result": "caused a decrease in serum cholesterol"}]}, {"compound": "COc1ccc(-c2ccc3cc(OC)ccc3c2Cc2ccc(OCCN3CCCCC3)cc2)cc1.Cl", "note": "[Example 1, [2-(4-Methoxyphenyl)-6-methoxynaphthalen-1-yl][4-[2-(1-piperidinyl)ethoxy]phenyl]methane hydrochloride]", "values": [{"measurement": "IC50", "setting": "[4]; [8]", "result": 100, "unit": "nM"}, {"measurement": "Distal Femur Metaphysis (X-ray Image Analysis-Gray Score)", "setting": "[1]; [6]", "result": "24.7 ± 4.2"}, {"measurement": "Distal Femur Metaphysis (X-ray Image Analysis-Gray Score)", "setting": "[1]; Table 2, oral daily 35 days in 20% cyclodextrin, 1.0 mg/kg, OVX control 5.5 ± 0.6, Sham 30.5 ± 4.3", "result": "21.7 ± 4.7"}, {"measurement": "Distal Femur Metaphysis (X-ray Image Analysis-Gray Score)", "setting": "[1]; Table 2, oral daily 35 days in 20% cyclodextrin, 10.0 mg/kg, OVX control 5.5 ± 0.6, Sham 30.5 ± 4.3", "result": "21.9 ± 3.2"}, {"measurement": "Uterine EPO (V. max)", "setting": "[2]; female, Sprague Dawley, 0.01 mg/kg, 4 days", "result": 4.2}, {"measurement": "Uterine EPO (V. max)", "setting": "[2]; female, Sprague Dawley, 0.1 mg/kg, 4 days", "result": 7.2}, {"measurement": "Uterine EPO (V. max)", "setting": "[2]; female, Sprague Dawley, 1 mg/kg, 4 days", "result": 4.5}, {"measurement": "Uterine EPO (V. max)", "setting": "[2]; female, Sprague Dawley, 10 mg/kg, 4 days", "result": 3.6}, {"measurement": "inhibition in vivo at 0.01 mg/kg", "setting": "[3]; Rattus norvegicus, po, 96 h, oral daily for 4 days, dose 0.01 mg/kg, read-out: Serum Cholesterol (% decrease vs. OVX)", "result": 42.9, "unit": "%"}, {"measurement": "inhibition in vivo at 0.1 mg/kg", "setting": "[3]; Rattus norvegicus, po, 96 h, oral daily for 4 days, dose 0.1 mg/kg, read-out: Serum Cholesterol (% decrease vs. OVX)", "result": 59.9, "unit": "%"}, {"measurement": "inhibition in vivo at 1 mg/kg", "setting": "[3]; Rattus norvegicus, po, 96 h, oral daily for 4 days, dose 1.0 mg/kg, read-out: Serum Cholesterol (% decrease vs. OVX)", "result": 75, "unit": "%"}, {"measurement": "inhibition in vivo at 10 mg/kg", "setting": "[3]; Rattus norvegicus, po, 96 h, oral daily for 4 days, dose 10.0 mg/kg, read-out: Serum Cholesterol (% decrease vs. OVX)", "result": 63.4, "unit": "%"}, {"measurement": "Uterine Weight (% increase vs. OVX)", "setting": "[5]; 0.01 mg/kg", "result": "−11.2", "unit": "%"}, {"measurement": "Uterine Weight (% increase vs. OVX)", "setting": "[5]; 0.1 mg/kg", "result": 23.1, "unit": "%"}, {"measurement": "Uterine Weight (% increase vs. OVX)", "setting": "[5]; 1 mg/kg", "result": 29.7, "unit": "%"}, {"measurement": "Uterine Weight (% increase vs. OVX)", "setting": "[5]; 10 mg/kg", "result": 12.2, "unit": "%"}]}, {"compound": "CCN(CC)CCOc1ccc(Cc2c(-c3ccc(O)cc3)ccc3cc(O)ccc23)cc1", "note": "[Example 24, [2-(4-hydroxyphenyl)-6-hydroxynaphthalen-1-yl][4-[2-(1-N,N-diethylamino)ethoxy]phenyl]methane]", "values": [{"measurement": "IC50", "setting": "[4]", "result": "Not active"}, {"measurement": "Uterine EPO (V. max)", "setting": "[2]; 0.1 mg/kg", "result": 13.8}, {"measurement": "Uterine EPO (V. max)", "setting": "[2]; 1 mg/kg", "result": 55.8}, {"measurement": "Uterine EPO (V. max)", "setting": "[2]; 10 mg/kg", "result": 36.3}, {"measurement": "Serum Cholesterol (% decrease vs. OVX)", "setting": "[3]; [7]", "result": 69.2, "unit": "%"}, {"measurement": "Serum Cholesterol (% decrease vs. OVX)", "setting": "[3]; oral daily for 4 days, dose 1.0 mg/kg", "result": 50.0, "unit": "%"}, {"measurement": "Serum Cholesterol (% decrease vs. OVX)", "setting": "[3]; oral daily for 4 days, dose 10.0 mg/kg", "result": 48.4, "unit": "%"}]}, {"compound": "Oc1ccc(-c2ccc3cc(O)ccc3c2Cc2ccc(OCCN3CCCCCC3)cc2)cc1", "note": "[Example 27, [2-(4-Hydroxyphenyl)-6-hydroxynaphthalen-1-yl][4-[2-(1-hexamethyleneiminyl)ethoxy]phenyl]methane]", "values": [{"measurement": "IC50", "setting": "[4]; [8]", "result": 1, "unit": "nM"}]}]}
